In patent publication US20240417425A1 (priority 2021, published 2024):
Where two headings read alike, the source gives them in different places.

Key:
[1] = test system: MHV, FIPV, Middle East respiratory syndrome (MERS)-CoV, VSV, IAV; settings: cited from earlier work
[2] = test system: Neuroblastoma (SH-SY5Y) cells
[3] = test system: quail cardiomyocytes; settings: for Effect on cardiomyocytes contractility compared to digoxin: all concentrations tested, 10 minutes and 30 minutes after addition (FIGS. 5, 6)
[4] = test system: NCI-60 cell line panel; assay: NCI-60 one-dose cancer cell growth testing; format: cell-based, human; settings: FIGS. 13-15
Experimental: The anti-proliferative activity of the target compounds was tested against the NCI-60 cell line panel. The screening was performed at the National Cancer Institute (NCI), Bethesda, Maryland, USA (www.dtp.nci.nih.gov), according to their standard protocol (https://dtp.cancer.gov/discovery_development/nci-60/methodology.htm).
In the anti-cancer studies were performed at the NCI, NIH in the one-dose testing of the NCI-60 project (https://dtp.cancer.gov/discovery_development/nci-60/methodology.htm). The numbers reported are growth relative to the no-drug control, and relative to the time zero number of cells. This allows detection of both growth inhibition (values between 0 and 100) and lethality (values less than 0). For example, a value of 100 means no growth inhibition. A value of 40 would mean 60% growth inhibition. A value of 0 means no net growth over the course of the experiment. A value of −40 would mean 40% lethality. A value of −100 means all cells are dead.

[5] = test system: Na^+, K^+-ATPase; settings: for Inhibition of brain microsomal Na+,K+-ATPase activity, potency in comparison to Bufalin: FIGS. 2 and 3
[6] = in vitro; settings: human
[7] = test system: Chikungunya virus (CHIKV); settings: human cells; cited from earlier work
[8] = test system: Japanese Encephalitis Virus; settings: cited from earlier work
[9] = test system: Human respiratory syncytial virus (RSV); settings: human small airway epithelial cells; cited from earlier work
[10] = test system: herpes simplex virus; settings: cited from earlier work
[11] = test system: influenza virus; settings: cited from earlier work
[12] = test system: transmissible gastroenteritis coronavirus (TGEV); settings: swine testicular (ST) cells; cited from earlier work

Structure (SMILES)	Cytotoxic potency in comparison to the other steroids [2]	Effect on cardiomyocytes contractility compared to digoxin [3]	Most sensitive cancer cell line [4]	Inhibition of brain microsomal Na+,K+-ATPase activity, potency in comparison to Bufalin [5]	viability at 5 µM [6]	viability at 25 µM [6]	viability at 50 µM [6]	viability at 100 µM [6]	Effect on infection by CHIKV [7]	Efficiency against Japanese Encephalitis Virus [8]	further results
C[C@]12CC[C@H](O)C[C@H]1CC[C@@H]1[C@@H]2CC[C@]2(C)[C@@H](c3ccc(=O)oc3)CC[C@]12O [Bufalin, bufalin]											Effect on infection of cells with viruses [1]: inhibited infection of cells with MHV, FIPV, Middle East respiratory syndrome (MERS)-CoV, and VSV, but not IAV
C[C@]12CC=CCC1CCC1C2CC[C@]2(C)[C@@H](c3ccc(=O)oc3)CC[C@]12O (stereo partly drawn) [Compound 1, bufalin 2,3-ene]	lower cytotoxic potency	stronger effect on contractility than digoxin	SNB-19	approximately the same potency as Bufalin	32.2%	13.8%	5.62%	1.28%			
C[C@]12CCC=CC1CCC1C2CC[C@]2(C)[C@@H](c3ccc(=O)oc3)CC[C@]12O (stereo partly drawn) [Compound 2, bufalin 3,4-ene]	lower cytotoxic potency	stronger effect on contractility than digoxin	SNB-19	more potent inhibitor	53.8%	24.7%	11.5%	6.13%			Inhibition of Na+,K+-ATPase activity at very low concentrations in comparison to Bufalin ([5]; very low (nanomolar) concentrations): better than Bufalin
C[C@H]1O[C@@H](O[C@H]2[C@@H](O)C[C@H](O[C@H]3[C@@H](O)C[C@H](O[C@H]4CC[C@@]5(C)[C@H](CC[C@@H]6[C@@H]5C[C@@H](O)[C@]5(C)[C@@H](C7=CC(=O)OC7)CC[C@]65O)C4)O[C@@H]3C)O[C@@H]2C)C[C@H](O)[C@@H]1O [Digoxin, digoxin]					23.4%	1.02%	0.26%	2.55%	dose-dependent decrease in infection	robust efficiency against the virus	
C[C@@H]1O[C@@H](O[C@H]2C[C@@H](O)[C@]3(CO)[C@H]4[C@H](O)C[C@]5(C)[C@@H](C6=CC(=O)OC6)CC[C@]5(O)[C@@H]4CC[C@]3(O)C2)[C@H](O)[C@H](O)[C@H]1O [Ouabain, ouabain]					6.26%	1.92%	0.51%	4.09%	dose-dependent decrease in infection	robust efficiency against the virus	Effect on RSV entry [9]: inhibited; Reduction of expression of viral immediate-early and early genes [10]: at least 5 fold; Effect on influenza virus replication [11]: decrease influenza virus replication; Effect on TGEV-induced production of IL-6 [12]: inhibit the TGEV-induced production of IL-6 in a dose dependent manner; Effect on infection of cells with viruses ([1]; nM concentrations): inhibited infection of cells with MHV, FIPV, Middle East respiratory syndrome (MERS)-CoV, and VSV, but not IAV
NC[C@H](O)c1ccc(O)c(O)c1 [noradrenaline]											Effect on cardiomyocytes contractility ([3]; dose-dependently, FIG. 4): increased
